Literature values as cited in patent US20180273780A1, “WATER-BASED INK COMPOSITION FOR INK JET RECORDING AND COLORING MATERIAL LIQUID” (Seiko Epson Corporation, priority 2017, published 2018).

Row | water-octanol partition coefficient (log P) | Molecule
1 | 1.36 | CCCCCCOCC(O)CO (stereo not drawn) [3-(hexyloxy)-1,2-propanediol]
2 | 2.4 | CCCCC(CC)COCCOCCO (stereo not drawn) [diethylene glycol-2-ethylhexyl ether]
3 | 0.56 | CCCCOCCOCCO [butyl diglycol]
4 | 0.67 | CCCN1CCCC1=O [1-propyl-2-pyrrolidone]
5 | 0.97 | tritrimethylolpropane

Row | Molecule | water-octanol partition coefficient (log P)
6 | CCCCOCCC(=O)N(C)C [3-butoxy-N,N-dimethylpropanamide] | 0.86
